{"source": "patent US9695129B2", "about": "“Parasiticidal compositions comprising benzimidazole derivatives, methods and uses thereof” (MERIAL INC., priority 2012, dated 2017)", "design_in_all_cases": "species or system Fasciola hepatica", "key": {"[1]": {"test_system": "F. hepatica resistant to triclabendazole (Oberon isolate of Australia)", "assay": "In vitro test against triclabendazole-resistant F. hepatica (Oberon isolate), movement score", "settings": "for Fluke activity score: scale 3 (very active) to 0 (death)"}, "adult F. hepatica [2]": {"test_system": "adult F. hepatica", "assay": "In vivo test in female Wistar rats harboring adult F. hepatica", "settings": "single oral dose 100 mg/kg, one week after dosing", "protocol": "Additionally, five compounds were tested in vivo in female Wistar rats against an untreated control. Rats were kept in groups of five in type-4 Makrolon cages under environmentally controlled conditions (temperature, 22° C.; humidity, 70%; light/dark cycle, 12/12 h) with free access to water and rodent food. F. hepatica metacercariae (Pacific Northwest wild strain) were purchased from Baldwin Aquatics (Monmouth, Oreg.). After one week of adaptation, each rat was infected by oral gavage with approximately 25 metacercariae.\nThree rats harboring adult F. hepatica (>8 weeks postinfection) were used to test each of five compounds. The rats were given a single oral dose of 100 mg/kg with each of test compounds 273, 274, 282, 290 and 303. Untreated rats (n=3) served as controls. Dosing formulations consisted of 300 ul Tween 80:ethanol (1:1) and 2.7 ml water. One week after dosing the animals were euthanized and live worms recovered from excised bile ducts."}, "adult F. hepatica [3]": {"test_system": "adult F. hepatica", "assay": "In vitro test on adult F. hepatica (viability scale, effective concentration)", "settings": "Fasciola hepatica, 72 h, read-out: Effective in vitro concentration", "protocol": "Representative compounds of formula (I), formula (II), and formula (III) were tested in vitro against F. hepatica as follows. Adult F. hepatica (fluke) were collected from infected bovine livers obtained from a local abattoir (Basel, Switzerland). The worms were quickly washed with 0.9% (w/v) NaCl and placed in 6 or 12-well plates (Costar). Culture medium in each well contained RPMI 1640 (Gibco) at 37° C., which was supplemented with antibiotics (50 μg/ml streptomycin and 50 IU/ml penicillin; Gibco) and 80 μg/ml of a haemin solution. The haemin solution was prepared as follows: 5 mg haemin was dissolved in 1 ml of 0.1M aqueous solution of NaOH, and 3.95 ml of PBS (pH=7.4) and 0.05 ml of 1M HCl were added to adjust the pH to 7.1-7.4 (Keiser and Morson, 2008). Cultures were kept at 37° C. in an atmosphere of 5% CO2. To monitor the temporal effects of test compounds in vitro, 3 flukes were incubated for 72 h in the presence of 50 or 100 μg/ml of each test compound. At 24, 48, and 72 h, worms were examined using a dissecting microscope. For the adult worms, a viability scale ranging from 4 (normal movements) to 1 (death; no movement observed for two min using a microscope) was used.\n(§1) Table 1 lists representative compounds of formula (I) of the present invention and their effective in vitro concentrations against F. hepatica. All compounds were tested in vitro on the adult stage of F. hepatica as described above. Each data point refers to at least two independent experiments. For Table 1, R2 is H, R4 is Cl and R5 is H.\nas §1, with “2” for “1”, “(II)” for “(I)”, “2 compounds, the 2-position of the benzimidazole ring” for “1, R2”, “methylthio, R6” for “H, R4”, “H” for “Cl”, “R9” for “R5”\nas §1, with “3” for “1”, “(III)” for “(I)”, “3, the 2-position of the benzimidazole ring” for “1, R2”, “trifluoromethylthio, R10” for “H, R4”, “H” for “Cl”, “R13” for “R5”"}}}
{"smiles": "FC(F)(F)C(F)(F)C(F)(F)c1nc2cc(Cl)c(Oc3ccc(Cl)cc3Cl)cc2[nH]1", "note": "[Compound 273, 5-chloro-6-(2,4-dichlorophenoxy)-2-(heptafluoropropyl)-1H-1,3-benzodiazole]", "values": [{"measurement": "Fluke activity score", "setting": "[1]; 10 μg/ml, 0 h", "result": 3}, {"measurement": "Fluke activity score", "setting": "[1]; 10 μg/ml, 24 h", "result": 0}, {"measurement": "Fluke activity score", "setting": "[1]; 10 μg/ml, 48 h", "result": 0}, {"measurement": "Fluke activity score", "setting": "[1]; 10 μg/ml, 72 h", "result": 0}, {"measurement": "Fluke activity score", "setting": "[1]; 20 μg/ml, 0 h", "result": 3}, {"measurement": "Fluke activity score", "setting": "[1]; 20 μg/ml, 24 h", "result": 0}, {"measurement": "Fluke activity score", "setting": "[1]; 20 μg/ml, 48 h", "result": 0}, {"measurement": "Fluke activity score", "setting": "[1]; 20 μg/ml, 72 h", "result": 0}, {"measurement": "Efficacy against triclabendazole-resistant flukes, in words", "setting": "[1]; even at 10 μg/ml, compared with #114, #130, #140 and 50 μg/ml triclabendazole/sulfoxide", "result": "particularly efficacious"}, {"measurement": "No. of rats cured/No. of rats investigated", "setting": "adult F. hepatica [2]", "result": "1/2"}, {"measurement": "Number of living worms Ø = average", "setting": "adult F. hepatica [2]; control 6.3", "result": 1.5}, {"measurement": "Worm burden reduction %", "setting": "adult F. hepatica [2]; vs untreated control", "result": 76.2, "unit": "%"}, {"measurement": "minimal effective concentration", "setting": "adult F. hepatica [3]", "result": 5, "unit": "µg/mL"}]}
